{"source": "paper PMC10803289", "about": "“Transport and inhibition mechanism of the human SGLT2–MAP17 glucose transporter” (Nature Structural & Molecular Biology, 2023)", "key": {"[1]": {"molecular_target": "T1, wild-type hSGLT2 (membrane fraction of hSGLT2 and MAP17 expressing cells) (Homo sapiens, UniProt P31639)", "T1 construct": "expressed in transfected cells; host or cells: Expi293 cells, crude membrane fraction", "T1 sequence (P31639 1-672)": "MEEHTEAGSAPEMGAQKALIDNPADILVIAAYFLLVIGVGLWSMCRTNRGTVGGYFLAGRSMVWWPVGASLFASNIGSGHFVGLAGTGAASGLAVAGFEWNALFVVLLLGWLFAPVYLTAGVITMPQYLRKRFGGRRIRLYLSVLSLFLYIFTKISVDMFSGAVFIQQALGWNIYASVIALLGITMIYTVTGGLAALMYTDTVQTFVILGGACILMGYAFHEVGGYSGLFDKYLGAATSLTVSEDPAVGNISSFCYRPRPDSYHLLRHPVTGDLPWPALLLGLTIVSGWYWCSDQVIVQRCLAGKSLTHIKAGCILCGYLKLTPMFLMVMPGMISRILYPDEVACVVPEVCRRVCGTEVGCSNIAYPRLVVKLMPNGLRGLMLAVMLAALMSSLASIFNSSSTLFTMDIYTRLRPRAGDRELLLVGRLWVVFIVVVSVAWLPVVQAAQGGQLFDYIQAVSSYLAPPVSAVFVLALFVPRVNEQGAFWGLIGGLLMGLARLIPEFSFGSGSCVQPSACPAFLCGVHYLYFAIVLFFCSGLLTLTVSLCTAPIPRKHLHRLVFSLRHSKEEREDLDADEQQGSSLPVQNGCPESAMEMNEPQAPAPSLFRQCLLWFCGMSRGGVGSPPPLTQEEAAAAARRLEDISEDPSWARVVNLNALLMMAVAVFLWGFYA", "T1 sequence (Q13113 1-114 partner)": "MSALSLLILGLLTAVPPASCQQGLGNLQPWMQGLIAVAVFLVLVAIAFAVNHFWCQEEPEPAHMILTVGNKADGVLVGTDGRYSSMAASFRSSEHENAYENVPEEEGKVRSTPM", "assay": "SGLT2 inhibitor-binding assay via affinity selection–mass spectrometry, crude membrane, WT", "protocol": "(§1) To examine the inhibition of binding to the crude membrane, mammalian Expi293 cells were co-transfected with the hMAP17 and hSGLT2 plasmids, as described. The cells were collected and disrupted by sonication in a hypotonic buffer (50 mM HEPES–NaOH (pH 7.5), 10 mM KCl and protease inhibitor cocktail) or Na^+-free hypotonic buffer (50 mM Tris–HCl (pH 7.5), 10 mM KCl and protease inhibitor cocktail). The cell debris were removed by centrifugation (2,000g, 5 min, 4 °C). The membrane fraction was collected by ultracentrifugation (112,000g, 30 min, 4 °C) and stored at −80 °C before use. The crude membrane (250 μg per sample) was incubated with SGLT2 inhibitor in an assay buffer (100 mM NaCl and 10 mM HEPES/Tris, pH 7.4) or Na^+-free assay buffer (100 mM choline chloride and 10 mM HEPES/Tris, pH 7.4) at room temperature for 2 h. Reactions were terminated by filtration through a GF/C filter plate (Corning) presoaked in assay buffer containing 0.1% bovine serum albumin. The sample in the filter plate was washed three times with the assay buffer and eluted with acetonitrile: water (80:20, v/v). The extract solution from the filter plate was diluted with water containing candesartan as an internal standard, and the SGLT2 inhibitor concentration was quantified via LC–MS/MS.\n(§2) Nonspecific binding was measured using the crude membrane of nontransfected Expi293 cells. Specific binding was calculated by subtracting nonspecific binding from the binding of hSGLT2-expressing cells. Specific binding was normalized to hSGLT2 protein expression levels, measured via FSEC. The equilibrium dissociation constant (Kd) and maximum number of binding sites (Bmax) were calculated via nonlinear regression in GraphPad Prism 8.4.3. The specific binding of the hSGLT2 mutants was normalized to the Bmax of WT hSGLT2.\n(§3) The concentrations of the extract solution from the filter plate and of the cell lysate were quantified using a tandem mass spectrometry QTRAP6500 System (SCIEX) coupled with an ACQUITY UPLC system (Waters) using the internal standard method. Mobile phases A and B used 10 mM of ammonium bicarbonate and acetonitrile, respectively."}, "[2]": {"test_system": "nontransfected Expi293 cells (Mock)", "assay": "Nonspecific binding to crude membrane of nontransfected cells (Mock)", "design": "species or system human", "conditions": "Mock", "protocol": "as §1, §2, §3"}, "SGLT1 and SGLT2": {"test_system": "SGLT1 and SGLT2", "conditions": "cited from earlier work; for subtype specificity of inhibition (SGLT1 vs SGLT2): in words"}, "hSGLT2 V95I": {"test_system": "hSGLT2 V95I", "design": "method as in PMID 34880493", "conditions": "cited from earlier work"}, "SGLT2": {"test_system": "SGLT2", "design": "method as in Hummel et al., Am. J. Physiol., Cell Physiol., 2011", "conditions": "authors' rebuttal in peer review file; ref Hummel et al., Am. J. Physiol., Cell Physiol., 2011; cited from earlier work"}, "SGLT1 T395A": {"test_system": "SGLT1 T395A", "design": "method as in PMID 30532032", "conditions": "replacement of T395 with Ala at the Na3 site; cited from earlier work"}, "hSGLT2 S74A": {"molecular_target": "T2, hSGLT2 S74A (Homo sapiens, UniProt P31639, S74A)", "T2 construct": "expressed in transfected cells; host or cells: Expi293 cells, crude membrane fraction", "T2 sequence (P31639 whole entry S74A, one chain of several, the tested form may be a part)": "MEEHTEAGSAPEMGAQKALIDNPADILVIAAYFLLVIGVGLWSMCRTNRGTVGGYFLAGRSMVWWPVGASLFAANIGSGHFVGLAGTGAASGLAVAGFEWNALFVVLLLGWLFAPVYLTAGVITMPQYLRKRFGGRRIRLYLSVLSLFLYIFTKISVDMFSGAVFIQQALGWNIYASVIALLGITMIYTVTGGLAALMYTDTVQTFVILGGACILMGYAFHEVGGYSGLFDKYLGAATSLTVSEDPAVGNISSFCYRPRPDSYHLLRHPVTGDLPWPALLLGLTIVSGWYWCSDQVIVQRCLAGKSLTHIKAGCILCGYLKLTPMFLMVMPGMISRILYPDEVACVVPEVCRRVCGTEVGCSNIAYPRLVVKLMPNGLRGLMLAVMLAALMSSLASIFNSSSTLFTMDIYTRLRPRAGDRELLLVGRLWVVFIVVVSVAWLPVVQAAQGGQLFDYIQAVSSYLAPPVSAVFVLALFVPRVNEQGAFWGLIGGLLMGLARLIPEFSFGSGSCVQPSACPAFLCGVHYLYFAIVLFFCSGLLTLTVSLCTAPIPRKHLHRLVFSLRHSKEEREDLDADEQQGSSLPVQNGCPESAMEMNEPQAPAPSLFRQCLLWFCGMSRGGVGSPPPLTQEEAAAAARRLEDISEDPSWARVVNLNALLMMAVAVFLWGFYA", "assay_type": "binding", "conditions": "S74A mutant", "from_the_text": "(§4) hSGLT2 complementary DNA and human MAP17 cDNA were synthesized and codon-optimized for expression in human cell lines. Both cDNAs were cloned into the pcDNA3.4 vector. The hSGLT2 sequence was fused with an N-terminal signal sequence from human trypsinogen 1, a His10 tag, and sfGFP, followed by a human rhinovirus 3C protease (HRV3C protease) recognition site. Point mutations were introduced into this construct using site-directed mutagenesis. These plasmids were utilized for all experimental procedures conducted in this study.\nTo examine the inhibition of binding to the crude membrane, mammalian Expi293 cells were co-transfected with the hMAP17 and hSGLT2 plasmids, as described. The cells were collected and disrupted by sonication in a hypotonic buffer (50 mM HEPES–NaOH (pH 7.5), 10 mM KCl and protease inhibitor cocktail) or Na^+-free hypotonic buffer (50 mM Tris–HCl (pH 7.5), 10 mM KCl and protease inhibitor cocktail). The cell debris were removed by centrifugation (2,000g, 5 min, 4 °C). The membrane fraction was collected by ultracentrifugation (112,000g, 30 min, 4 °C) and stored at −80 °C before use. […] The extract solution from the filter plate was diluted with water containing candesartan as an internal standard, and the SGLT2 inhibitor concentration was quantified via LC–MS/MS.\nas §2, with “The specific binding of the hSGLT2 mutants was normalized to the Bmax of WT hSGLT2.” left out\nThe concentrations of the extract solution from the filter plate and of the cell lysate were quantified using a tandem mass spectrometry QTRAP6500 System (SCIEX) coupled with an ACQUITY UPLC system (Waters) using the internal standard method. […]"}, "hSGLT2 D201A": {"molecular_target": "T3, hSGLT2 D201A (Homo sapiens, UniProt P31639, D201A)", "T3 sequence (P31639 1-672 D201A)": "T1 sequence (P31639 1-672) with D201A", "T3 sequence (Q13113 1-114 partner)": "T1 sequence (Q13113 1-114 partner)", "assay": "SGLT2 inhibitor-binding assay (AS-MS), crude membrane, D201A mutant", "design": "expressed in transfected cells; host or cells: Expi293 cells, crude membrane fraction", "conditions": "D201A mutant", "from_the_text": "as §4\nTo examine the inhibition of binding to the crude membrane, mammalian Expi293 cells were co-transfected with the hMAP17 and hSGLT2 plasmids, as described. […] The extract solution from the filter plate was diluted with water containing candesartan as an internal standard, and the SGLT2 inhibitor concentration was quantified via LC–MS/MS.\nas §2, with “The specific binding of the hSGLT2 mutants was normalized to the Bmax of WT hSGLT2.” left out"}}, "note": "Substitutions are numbered along the chain they refer to. Several values for one entry are separate records, joined by “and”; a condition that tells them apart may be missing. Equal values may be shown once.", "data": [{"compound": "OC[C@H]1O[C@@H](n2cc(Cc3ccc(C4CC4)cc3)c3c(F)cccc32)[C@H](O)[C@@H](O)[C@@H]1O", "note": "[TA-1887]", "values": [{"measurement": "Binding (% of hSGLT2)", "setting": "[1]; 10 nM TA-1887", "value": "96.8051 % of hSGLT2 and 101.597 % of hSGLT2"}, {"measurement": "Bmax", "setting": "[1]; Na(+), mean ± SEM n=3", "value": "4.67 ± 0.49", "unit": "pmol/mg-protein"}, {"measurement": "Kd", "setting": "[1]; Na(+), mean ± SEM n=3", "value": "115 ± 28", "unit": "nM"}, {"measurement": "Bmax", "setting": "[1]; Na(-), mean ± SEM n=3", "value": "0.705 ± 0.155", "unit": "pmol/mg-protein"}, {"measurement": "Kd", "setting": "[1]; Na(-), mean ± SEM n=3", "value": "86.4 ± 50", "unit": "nM"}, {"measurement": "Bmax in the absence versus the presence of Na+ (in words)", "setting": "[1]; absence vs presence of Na+", "value": "partially lower"}, {"measurement": "Binding (% of hSGLT2)", "setting": "[2]; 10 nM TA-1887", "value": "13.0351 % of hSGLT2 and 13.9457 % of hSGLT2 and 14.6645 % of hSGLT2"}, {"measurement": "subtype specificity of inhibition (SGLT1 vs SGLT2)", "setting": "SGLT1 and SGLT2", "value": "SGLT2-specific inhibition"}]}, {"compound": "OC[C@H]1O[C@@H](c2ccc(Cl)c(Cc3ccc(O[C@H]4CCOC4)cc3)c2)[C@H](O)[C@@H](O)[C@@H]1O", "note": "[empagliflozin]", "values": [{"measurement": "subtype specificity of inhibition (SGLT1 vs SGLT2)", "setting": "SGLT1 and SGLT2", "value": "SGLT2-specific inhibition"}, {"measurement": "effect of V95I on inhibitory activity", "setting": "hSGLT2 V95I", "value": "reduces the inhibitory activity"}]}, {"compound": "OC[C@H]1OC(O)[C@H](O)[C@@H](O)[C@@H]1O", "note": "(stereo partly shown) [glucose]", "values": [{"measurement": "Michaelis constant", "setting": "SGLT2", "value": 5, "unit": "mM"}, {"measurement": "reduction in glucose affinity", "setting": "SGLT1 T395A", "value": "more than 30 fold"}]}, {"compound": "CS[C@H]1O[C@@H](c2ccc(C)c(Cc3ccc(CCCC(=O)NC(C)(C)C(=O)NCCN(C)C)cc3)c2)[C@H](O)[C@@H](O)[C@@H]1O", "note": "[LX-2761]", "values": [{"measurement": "subtype specificity of inhibition (SGLT1 vs SGLT2)", "setting": "SGLT1 and SGLT2", "value": "dual inhibitors"}]}, {"compound": "CCOc1ccc(Cc2cc([C@@H]3O[C@H](SC)[C@@H](O)[C@H](O)[C@H]3O)ccc2Cl)cc1", "note": "[Sotagliflozin]", "values": [{"measurement": "Binding (% of hSGLT2)", "setting": "[1]; 50 nM sotagliflozin", "value": "96.1006 % of hSGLT2 and 97.9874 % of hSGLT2 and 105.912 % of hSGLT2"}, {"measurement": "Binding (% of hSGLT2)", "setting": "[2]; 50 nM sotagliflozin", "value": "19.1195 % of hSGLT2 and 17.8616 % of hSGLT2 and 17.9874 % of hSGLT2"}, {"measurement": "subtype specificity of inhibition (SGLT1 vs SGLT2)", "setting": "SGLT1 and SGLT2", "value": "dual inhibitors"}]}, {"compound": "CCOc1ccc(Cc2cc([C@@H]3O[C@H](CO)[C@@H](O)[C@H](O)[C@H]3O)ccc2Cl)cc1", "note": "[Dapagliflozin]", "values": [{"measurement": "Binding (% of hSGLT2)", "setting": "[1]; 10 nM dapagliflozin", "value": "83.4507 % of hSGLT2 and 95.0704 % of hSGLT2 and 121.479 % of hSGLT2"}, {"measurement": "Binding (% of hSGLT2)", "setting": "[2]; 10 nM dapagliflozin", "value": "2.53 % of hSGLT2 and 3.518 % of hSGLT2 and 3.481 % of hSGLT2"}, {"measurement": "fold difference in inhibition between SGLT1 and SGLT2", "setting": "SGLT1 and SGLT2", "value": "more than 1,000 fold"}, {"measurement": "subtype specificity of inhibition (SGLT1 vs SGLT2)", "setting": "SGLT1 and SGLT2", "value": "SGLT2-specific inhibition"}]}, {"compound": "O=C(CCc1ccc(O)cc1)c1c(O)cc(O)cc1O", "note": "[Phloretin]", "values": [{"measurement": "phloretin binding (in words)", "setting": "[1]; WT", "value": "binds as effectively as phlorizin"}, {"measurement": "Bmax", "setting": "[1]; phloretin, WT, mean ± SEM n=4", "value": "51.7 ± 3.46", "unit": "pmol/mg-protein"}, {"measurement": "Kd", "setting": "[1]; phloretin, WT, mean ± SEM n=4", "value": "12000 ± 1900", "unit": "nM"}, {"measurement": "phloretin binding (in words)", "setting": "hSGLT2 S74A", "value": "not"}, {"measurement": "phloretin binding (in words)", "setting": "hSGLT2 D201A", "value": "not"}]}]}
